Twelve molecules from patent US11866430B2, “Naphthyridinone compounds useful as T cell activators” (priority 2018, dated 2024) can be followed below.

Structures are written as SMILES. pEC50, pIC50: −log10 of the molar value. Like-named read-outs stand apart in the source and are kept apart here. Where only a bound is given, the exact number is not on record here.

Assay [1] deals with T1, human DGKα (Homo sapiens (Human), UniProt P23743). Briefly: biochemical. The essentials: (§1)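 Enzymes were baculovirus/Sf9 full-length human DGKα or DGKζ with His tag. The substrate was PS/DAG in octyl glucoside micelles, in MOPS pH 7.5 buffer with NaCl, MgCl2, CaCl2 and DTT.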
T1 sequence (P23743 other isoform, or with tags, fused parts or gaps): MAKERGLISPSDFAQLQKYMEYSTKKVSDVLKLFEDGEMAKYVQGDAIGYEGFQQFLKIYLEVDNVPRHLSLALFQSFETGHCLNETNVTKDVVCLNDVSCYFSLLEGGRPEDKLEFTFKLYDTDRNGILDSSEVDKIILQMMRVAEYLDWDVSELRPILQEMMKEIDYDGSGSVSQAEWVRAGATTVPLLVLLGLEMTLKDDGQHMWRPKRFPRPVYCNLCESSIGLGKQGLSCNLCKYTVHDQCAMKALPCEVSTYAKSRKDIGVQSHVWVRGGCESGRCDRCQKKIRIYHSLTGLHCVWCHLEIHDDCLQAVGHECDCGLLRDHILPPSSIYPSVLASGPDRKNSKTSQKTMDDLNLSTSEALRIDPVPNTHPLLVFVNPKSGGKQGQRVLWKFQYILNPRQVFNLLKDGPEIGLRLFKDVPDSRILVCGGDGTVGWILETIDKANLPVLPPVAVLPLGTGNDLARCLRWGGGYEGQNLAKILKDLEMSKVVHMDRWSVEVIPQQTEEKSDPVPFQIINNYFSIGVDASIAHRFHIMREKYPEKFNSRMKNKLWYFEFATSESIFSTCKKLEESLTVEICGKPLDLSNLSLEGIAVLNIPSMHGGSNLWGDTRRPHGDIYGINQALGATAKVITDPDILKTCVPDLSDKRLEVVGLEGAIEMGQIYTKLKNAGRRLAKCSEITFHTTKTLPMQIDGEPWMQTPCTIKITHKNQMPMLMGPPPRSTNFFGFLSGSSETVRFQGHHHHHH
Assay [2] has as its target T2, human DGKζ (Homo sapiens (Human), UniProt Q13574). Briefly: DGKζ assay (detergent/lipid micelle substrate). The assay is classed as biochemical. To be noted: detergent/lipid micelle substrate; read-out: DGKζ IC50. The essentials:
as §1

The test system of assay [3] is naïve human CD8 T cells. Briefly: CellTiter-Glo CD8 T Cell Proliferation Assay. The assay is classed as cell-based. Conditions: Homo sapiens, T-cell. As for the experimental part: Frozen naïve human CD8 T cells were thawed in RPMI+10% FBS, incubated for 2 h in 37° C., and counted. The 384-well tissue culture plate was coated overnight at 4° C. with 20 μl anti-human CD3 at 0.1 μg/mL in plain RPMI, which was removed off the plate before 20 k/40 μl CD8 T cells with 0.5 μg/mL soluble anti-human CD28 were added to each well. The compounds were echoed to the cell plate immediately after the cells were plated. After 72 h incubation at 37° C. incubator, 10 μl CellTiter-glo reagent (Promega catalog number G7570) was added to each well. The plate was vigorously shaken for 5 mins, incubated at room temperature for another 15 mins and read on Envision for CD8 T cell proliferation. In analysis, 0.1 μg/mL anti-CD3 and 0.5 μg/mL anti-CD28 stimulated CD8 T cell signal was background.

Assay [4] concerns Jurkat AP1-luciferase Reporter. Briefly: DGK AP1-Reporter Assay. The assay is classed as cell-based. The essentials: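 Jurkat cells carrying a lentiviral AP1-luciferase reporter received 30 nl compound per well for 20 min at 37 °C and 5% CO2. They were then stimulated for 6 h with anti-CD3 solution at 0.4 μg/mL; reference wells received 4 μg/mL and unstimulated wells medium only. Readout was Steady-Glo luciferase luminescence (RLU).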

For assay [5], the target named is T1, human DGKα. Put plainly: DGKα LIPGLO assay (extruded liposome substrate). The assay is classed as biochemical. The essentials: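 Human full-length DGKα, His-tagged and produced in Sf9 cells, assayed at 20 nM (4× stock) on extruded liposomes of PS, 0.25 mM DAG and 2.75 mM PC, preincubated 10 min. Reaction started with 300 μM ATP (stock) and ran 1 h in MOPS pH 7.5/MgCl2/CaCl2/DTT buffer.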

The target in assay [6] is T2, human DGKζ. Put plainly: DGKζ LIPGLO assay (extruded liposome substrate). The assay is classed as biochemical. To be noted: extruded liposome substrate; read-out: DGKζ LIPGLO IC50. The procedure, abridged: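 Recombinant DGKζ (Sf9-expressed, Ni/SEC/SP-purified) preincubated 10 min with extruded 100 nm PC/DAG/PS liposomes in 50 mM MOPS pH 7.5, 100 mM NaCl, 10 mM MgCl2, 1 μM CaCl2, 1 mM DTT. Started with 300 uM ATP solution (stock, pre-addition); 1 hr reaction. ADP-Glo luminescence; IC50 from 11 concentrations.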

Assay [7] has as its system OT-1 antigen-specific CD8+ T cells with MC38 tumor cells. Put plainly: Murine Cytotoxic T Lymphocyte Assay (IFN-γ). The assay is classed as cell-based, mouse. An excerpt:
An antigen-specific cytolytic T-cell (CTL) assay was developed to evaluate functionally the ability of DGKα and DGKζ inhibitors to enhance effector T cell mediated tumor cell killing activity. CD8+ T-cells isolated from the OT-1 transgenic mouse recognize antigen presenting cells, MC38, that present the ovalbumin derived peptide […]. Recognition of the cognate antigen initiates the cytolytic activity of the OT-1 antigen-specific CD8+ T cells.
Functional CTL cells were generated as follows: OT-1 splenocytes from 8-12 week old mice were isolated and expanded in the presence of the […] peptide at 1 μg/mL and mIL2 at 10 U/mL. After three days, fresh media with mIL2 U/mL was added. On day 5 of the expansion, the CD8+ T cells were isolated and ready for use. Activated CTL cells may be stored frozen for 6 months. […] The cells were washed (3×) with fresh media to remove excess peptide. Finally, CTL cells that were pretreated with DGK inhibitors for 1 hour in a 96-well U bottom plate were combined with the antigen loaded MC38 tumor cells at a 1:10 ratio. The cells were then spun at 700 rpm for 5 min and placed in an incubator overnight at 37° C. After 24 hours, the supernatant was collected for analysis of IFN-γ cytokine levels by AlphaLisa purchased from Perkin Elmer.

For assay [8], the system named is pre-activated CD4 T cells and Raji cells. Briefly: Raji CD4 T Cell IL2 Assay. The assay is classed as cell-based. Conditions: Homo sapiens, Raji.
The subject of assay [9] is naïve human CD8 T cells. Put plainly: cells. To be noted: Homo sapiens, T-cell, read-out: HuCD8 INFG Normalized EC50, anti-CD3 plus anti-CD28 as baseline; 3 μM Example 40 co-stimulation as 100% activation. As for the experimental part: Frozen naïve human CD8 T cells were thawed in ATM-V media, incubated for 2 h in 37° C., and counted. The 384-well tissue culture plate was coated overnight at 4° C. with 20 μl anti-human CD3 at 0.05 μg/mL in PBS, which was removed off the plate before 40,000 cells per 40 microliters CD8 T cells with 0.1 μg/mL soluble anti-human CD28 were added to each well. The compounds were transferred using an Echo liquid handler to the cell plate immediately after the cells were plated. After 20 h incubation at 37° C. incubator, 3 microliters per well supernatants transferred into a new 384-well white assay plate for cytokine measurement.
Interferon-γ (IFN-γ) was quantitated using the AlphaLISA kit (Cat #AL217) as described by the manufacturer manual (Perkin Elmer). The counts from each well were converted to IFN-γ concentration […].

The mark [10] stands for this setting: detergent/lipid micelle substrate, read-out: DGKα IC50.
Setting [11] is: Homo sapiens, Jurkat, read-out: API-Luciferase Reporter IC50, Table 3.
The mark [12] stands for this setting: DGKα IC50, detergent/lipid micelle substrate.
[13] abbreviates: CellTiter-Glo CD8 T cell proliferation, normalized, read-out: CD8 GLO normalized EC50.
[14] abbreviates: Homo sapiens, Jurkat, read-out: DGKAP1 Lucif Reporter IC50, Table 4.
Where [15] appears, read: read-out: API-Luciferase Reporter IC50, Table 3.
The mark [16] stands for this setting: read-out: msCTL INF-γ IC50, murine CTL IFN-γ (table title reads INF-γ Whole Blood Normalized Agonist EC50).
Where [17] appears, read: Mus musculus, MC-38, read-out: msCTL INF-γ IC50, murine CTL IFN-γ (table title reads INF-γ Whole Blood Normalized Agonist EC50).

T2 sequence (Q13574 other isoform, or with tags, fused parts or gaps): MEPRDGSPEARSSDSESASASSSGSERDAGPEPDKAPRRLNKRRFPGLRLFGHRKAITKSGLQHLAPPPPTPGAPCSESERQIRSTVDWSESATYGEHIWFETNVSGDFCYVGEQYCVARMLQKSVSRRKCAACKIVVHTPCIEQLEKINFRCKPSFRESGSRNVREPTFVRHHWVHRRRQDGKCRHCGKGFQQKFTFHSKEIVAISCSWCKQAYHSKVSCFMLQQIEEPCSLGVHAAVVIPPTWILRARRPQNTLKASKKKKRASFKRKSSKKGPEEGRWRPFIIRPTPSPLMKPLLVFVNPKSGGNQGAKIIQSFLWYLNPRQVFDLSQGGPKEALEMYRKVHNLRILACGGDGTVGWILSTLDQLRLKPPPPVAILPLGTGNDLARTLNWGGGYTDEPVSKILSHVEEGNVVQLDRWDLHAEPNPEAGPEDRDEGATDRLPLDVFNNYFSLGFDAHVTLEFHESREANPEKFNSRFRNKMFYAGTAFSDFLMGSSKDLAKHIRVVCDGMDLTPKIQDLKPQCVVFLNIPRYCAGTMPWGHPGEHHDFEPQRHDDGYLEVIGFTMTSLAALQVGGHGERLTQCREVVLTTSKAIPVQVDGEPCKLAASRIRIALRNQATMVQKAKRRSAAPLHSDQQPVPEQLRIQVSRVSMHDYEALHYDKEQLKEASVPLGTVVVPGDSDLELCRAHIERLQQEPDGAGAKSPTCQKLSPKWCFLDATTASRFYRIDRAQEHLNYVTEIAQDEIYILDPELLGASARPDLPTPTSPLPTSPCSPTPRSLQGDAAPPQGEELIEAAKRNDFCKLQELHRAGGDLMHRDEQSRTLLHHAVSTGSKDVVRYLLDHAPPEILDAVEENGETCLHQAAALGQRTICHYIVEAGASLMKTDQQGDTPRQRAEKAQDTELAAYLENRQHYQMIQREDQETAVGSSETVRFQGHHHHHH

For the molecule `CCC(c1ccc(F)cc1)N1CCN(c2c([N+](=O)[O-])c(=O)n(C)c3ccc(C#N)nc23)CC1` (racemic) [Example 32, 8-{4-[1-(4-fluorophenyl)propyl]piperazin-1-yl}-5-methyl-7-nitro-6-oxo-5,6-dihydro-1,5-naphthyridine-2-carbonitrile], the results for the pIC50 (at human DGKα [1] (setting [10]); on human DGKζ [2]; in [4] (setting [11])) were 6.72, 5.03 and 6.44, respectively. Further, the pEC50 with naïve human CD8 T cells [3] (read-out: CD8 GLO normalized EC50, CellTiter-Glo CD8 T cell proliferation, normalized) was 6.74.
On to `Cn1c(=O)c([N+](=O)[O-])c(N2CCN(C(c3ccc(F)cc3)C3CC3)CC2)c2nc(C#N)ccc21` (racemic) [Example 49, 8-(4-(cyclopropyl(4-fluorophenyl)methyl)piperazin-1-yl)-5-methyl-7-nitro-6-oxo-5,6-dihydro-1,5-naphthyridine-2-carbonitrile], for which the results for the pIC50 (at human DGKα [1] (setting [12]); at human DGKζ [2]; in [4] (setting [14])) were 6.74, less than 3.62 and 5.77, respectively. Further, the pEC50 in the assay on naïve human CD8 T cells [3] (setting [13]) was 6.77.
In the case of `C#CCn1c(=O)c([N+](=O)[O-])c(N2CCN(C(c3ccc(F)cc3)c3ccccc3OC)CC2)c2nc(C#N)ccc21` (racemic) [Example 129, 8-(4-((4-fluorophenyl)(2-methoxyphenyl)methyl)piperazin-1-yl)-7-nitro-6-oxo-5-(prop-2-yn-1-yl)-5,6-dihydro-1,5-naphthyridine-2-carbonitrile], the pIC50 at human DGKα [1] (setting [10]) is 5.38; at human DGKζ [2], 6.74; in [4] (setting [14]), 6.06. For the same molecule, the pEC50 with naïve human CD8 T cells [3] (setting [13]) was 7.22.
On to `COc1cc(F)ccc1C(c1ccc(F)cc1)N1CCN(c2c(C#N)c(=O)n(C)c3ccc(C#N)nc23)CC1` (racemic) [Example 405, 8-{4-[(4-fluoro-2-methoxyphenyl)(4-fluorophenyl)methyl]piperazin-1-yl}-5-methy-6-oxo-5,6-dihydro-L5-naphthyridine-2,7-dicarbonitrile], for which the pIC50 was 6.25 at human DGKα [5] and 6.07 on human DGKζ [6]. For the same molecule, the pEC50 with naïve human CD8 T cells [3] (setting [13]) was 7.70.
`C#CCn1c(=O)c([N+](=O)[O-])c(N2CCN(C(c3ccc(F)cc3)c3ccccc3O)CC2)c2nc(C#N)ccc21` (single isomer, unassigned) [Example 133, 8-(4-((4-fluorophenyl)(2-hydroxyphenyl)methyl)piperazin-1-yl)-7-nitro-6-oxo-5-(prop-2-yn-1-yl)-5,6-dihydro-1,5-naphthyridine-2-carbonitrile]: the pIC50 against human DGKα [1] (setting [12]) was 5.48; on human DGKζ [2] it was 6.85; in [4] (setting [15]), 6.55; in assay [7] (setting [16]) it was 7.22.
Regarding `C#CCn1c(=O)c([N+](=O)[O-])c(N2CCN(C(c3ccc(F)cc3)c3ccccc3O)CC2)c2nc(C#N)ccc21` (single isomer, unassigned) [Example 134, 8-(4-((4-fluorophenyl)(2-hydroxyphenyl)methyl)piperazin-1-yl)-7-nitro-6-oxo-5-(prop-2-yn-1-yl)-5,6-dihydro-1,5-naphthyridine-2-carbonitrile], the pIC50 on human DGKα [1] (setting [10]) is 4.51; on human DGKζ [2], 5.38; in assay [4] (setting [15]), 6.22; in [7] (setting [16]) it was 5.94.
In the case of `Cn1c(=O)c(C#N)c(N2CCN(Cc3ccc(O)cc3)CC2)c2nc(Cl)ccc21` [Example 362, 6-chloro-4-{4-[(4-hydroxyphenyl)methyl]piperazin-1-yl}-1-methyl-2-oxo-1,2-dihydro-1,5-naphthyridine-3-carbonitrile], the pIC50 was 7.16 on human DGKα [1] (setting [10]); less than 3.62 on human DGKζ [2]; less than 4.00 in [8]; 5.08 in [4] (setting [11]); 5.00 in assay [7] (setting [17]).
As for `Cc1cccc(CN2CCN(c3c(C#N)c(=O)n(C)c4ccc(Cl)nc34)CC2)c1` [Example 385, 6-chloro-1-methyl-1-{4-4[(3-methylphenyl)methyl]piperazin-1-yl}-2-oxo-1,2-dihydro-1,5-naphthyridine-3-carbonitrile], the pIC50 at human DGKα [1] (setting [10]) is 6.46; on human DGKζ [2], 3.82; in [4] (setting [11]), 7.22; in assay [7] (setting [17]), 5.39.
For `CC(c1ccc(F)cc1)N1CCN(c2c(C#N)c(=O)n(C)c3ccc(Cl)nc23)CC1` (stereo not shown) [Example 387A, 6-chloro-4-{4-[1-(4-fluorophenyl)ethyl]piperazin-1-yl}-1-methyl-2-oxo-1,2-dihydro-1,5-naphthyridine-3-carbonitrile], the pEC50 in the assay on naïve human CD8 T cells [3] (setting [13]) was 5.00. Also, in assay [4] (setting [14]), the pIC50 is 5.00.
Take `COc1cc(F)ccc1C(c1ccc(F)cc1)N1CCN(c2cc(=O)n(C)c3ccc(C#N)nc23)CC1` (stereo not shown) [Example 392, 8-{4-[(4-fluoro-2-methoxyphenyl)(4-fluorophenyl)methyl]piperazin-1-yl}-5-methyl-6-oxo-5,6-dihydro-1,5-naphthyridine-2-carbonitrile]: the pIC50 was less than 3.62 against human DGKα [5], 5.64 on human DGKζ [6] and 5.73 in assay [7] (setting [17]). For the same molecule, the pEC50 in the assay with naïve human CD8 T cells [9] was 6.64.
In the same order, the values of `Cn1c(=O)c([N+](=O)[O-])c(N2CCN([C@@H](c3ccccc3)c3ccc(Cl)cc3)CC2)c2nc(C#N)ccc21` [Example 399, 8-{4-[(S)-(4-chlorophenyl)(phenyl)methyl]piperazin-1-yl}-5-methyl-7-nitro-6-oxo-5,6-dihydro-1,5-naphthyridine-2-carbonitrile] are 5.19, 6.80, 6.39 and 7.70.
In the same order, the values of `Cn1c(=O)c(C#N)c(N2CCN([C@@H](c3ccccc3)c3ccc(Cl)cc3)CC2)c2nc(Br)ccc21` [Example 428, 6-bromo-4-{4-[(S)-(4-chlorophenyl)(phenyl)methyl]piperazin-1-yl}-1-methyl-2-oxo-1,2-dihydro-1,5-naphthyridine-3-carbonitrile] are 5.00, 5.28, 6.23 and 7.52.
